Measured values as given in ChEMBL document CHEMBL4627294, “Synthesis and efficacy of pyrvinium-inspired analogs against tuberculosis and malaria pathogens” (Bioorg Med Chem Lett, 2020).
Values after ≈ are worked out from the molar mass of the structure shown. Active and inactive are the calls of the source. The rule behind the calls is not given here.

Assays:
[1] = system: Plasmodium falciparum; test: Antimalarial activity against erythrocytic stage of Plasmodium falciparum 3D7 incubated for 50 hrs; assay type: functional, organism-based; conditions: 3D7, 50 h
[2] = system: CHO-K1; test: Cytotoxicity against CHOK1 cells; assay type: cell-based; conditions: Cricetulus griseus
[3] = Cytotoxicity against human HEK cells; assay type: cell-based; conditions: HEK293
[4] = system: NRK-49F; test: Cytotoxicity against rat NRK-49F cells; assay type: cell-based
[5] = Selectivity index, ratio of IC50 for CHOK1 cells to IC50 for Plasmodium falciparum 3D7; assay type: toxicity; conditions: hamster, CHO-K1 cells; read-out: Ratio IC50
[6] = system: Mycobacterium tuberculosis; test: Antimycobacterial activity against Mycobacterium tuberculosis H37Rv assessed as inhibition of bacterial growth by MABA assay; assay type: functional
[7] = Selectivity index, ratio of IC50 for CHOK1 cells to MIC for Mycobacterium tuberculosis H37Rv; assay type: toxicity; conditions: hamster, CHO-K1 cells
[8] = system: Plasmodium falciparum; test: Antimalarial activity against drug-resistant Plasmodium falciparum Dd2; assay type: functional, organism-based
[9] = system: Plasmodium falciparum; test: Antimalarial activity against early ring stage of Plasmodium falciparum 3D7 assessed as parasite growth arrest at early trophozite stage at 3 times of IC50 incubated for 48 hrs by giemsa staining based light microscopy; assay type: functional, organism-based
[10] = system: Plasmodium falciparum; test: Parasiticidal activity against early ring stage of Plasmodium falciparum 3D7 assessed as reduction in parasite growth incubated for 48 hrs followed by compound washed off and measured after 48 hrs incubation in normal medium; assay type: functional, organism-based
[11] = system: Plasmodium falciparum; test: Antimalarial activity against Plasmodium falciparum 3D7 assessed as inhibition of parasite growth incubated for 96 hrs; assay type: functional, organism-based; conditions: 3D7, 96 h

| Compound | IC50 [1] [nM] | IC50 [2] [µM] | IC50 [3] [µM] | IC50 [4] [µM] | selectivity ratio [5] | MIC [6] [µM] | selectivity ratio [7] | IC50 [8] [nM] | Activity [9] | Activity [10] | IC50 [11] [nM] |
| --- | --- | --- | --- | --- | --- | --- | --- | --- | --- | --- | --- |
| CN(C)c1ccc2c(ccc(/C=C/c3ccccc3)[n+]2C)c1 | 89 | 41.6 | 39.8 | 42.1 | 467 | > 100 | < 0.41 |  |  |  |  |
| CN(C)c1ccc2c(ccc(/C=C/c3ccc(Cl)c(Cl)c3)[n+]2C)c1 | 87 | 12.4 | 8.56 | 11.3 | 142 | 3.12 | 3.98 |  |  |  |  |
| CN(C)c1ccc2c(ccc(/C=C/c3cccc(C#N)c3)[n+]2C)c1 | 217 | 87.6 | 56 | 59.5 | 404 | 25 | 3.5 |  |  |  |  |
| Cc1cc(/C=C/c2ccc3cc(N(C)C)ccc3[n+]2C)c(C)n1-c1ccccc1 | 774 | 10.9 | 16 | 20.2 | 14 | 6.25 | 1.73 |  |  |  |  |
| Cc1cc(/C=C/c2ccc3cc(N(C)C)ccc3[n+]2C)c(C)n1-c1ccccn1 | 228 | 15.2 | 14.6 | 12.7 | 66.2 | 6.25 | 2.42 |  |  |  |  |
| C[C@@H]1CC[C@H]2[C@@H](C)C(=O)O[C@@H]3O[C@@]4(C)CC[C@@H]1[C@]32OO4 [ARTEMISININ] | 25 |  |  |  |  |  |  | 21 |  |  |  |
| CN(C)c1ccc2c(ccc(/C=C/c3c[nH]c4ccccc34)[n+]2C)c1 | 60 | 11.4 | 10.6 | 11.3 | 188 | 3.12 | 3.64 | 97 |  |  |  |
| CN(C)c1ccc2c(ccc(/C=C/c3cc(Cl)ccc3O)[n+]2C)c1 | 441 | 30.3 | 15.3 | 12 | 68.7 | 3.12 | 9.72 |  |  |  |  |
| CN(C)c1ccc2c(ccc(/C=C/c3ccccc3[N+](=O)[O-])[n+]2C)c1 | 3600 | 73.9 | 66.7 | 69.5 | 20.5 | 50 | 1.47 |  |  |  |  |
| CN(C)c1ccc2c(ccc(/C=C/c3c(Cl)cccc3Cl)[n+]2C)c1 | 23 | 7.92 | 5.62 | 5.23 | 344 | 3.12 | 2.53 | 53 | Active | Active | 2.37 |
| CCc1nc(N)nc(N)c1-c1ccc(Cl)cc1 [PYRIMETHAMINE] | 11 |  |  |  |  |  |  |  |  |  |  |
| CO[C@H]1/C=C/O[C@@]2(C)Oc3c(C)c(O)c4c(O)c(c(/C=N/N5CCN(C)CC5)c(O)c4c3C2=O)NC(=O)/C(C)=C\C=C\[C@H](C)[C@H](O)[C@@H](C)[C@@H](O)[C@@H](C)[C@H](OC(C)=O)[C@@H]1C [RIFAMPIN] |  |  |  |  |  | 0.24 (≈ 0.198 µg/mL) |  |  |  |  |  |
| CN(C)c1ccc2c(ccc(/C=C/c3ccc[nH]3)[n+]2C)c1 | 1540 | 77.8 | 66.9 | 76 | 50.5 | 25 | 3.11 |  |  |  |  |
| CN(C)c1ccc2c(ccc(/C=C/c3cc(Cl)cc(Cl)c3O)[n+]2C)c1 | 2470 | 54.7 | 50.1 | 49.1 | 22.1 | 25 | 2.18 |  |  |  |  |
| CN(C)c1ccc2c(ccc(/C=C/c3ccc(C#N)cc3)[n+]2C)c1 | 94 | 52.6 | 62.1 | 50.2 | 553 | 50 | 1.05 |  |  |  |  |
